Reference: patent US11497740B2, “Use of Jumonji C demethylase inhibitors for the treatment and prevention of chemotherapy resistance and radioresistance in cancer” (THE BOARD OF REGENTS OF THE UNIVERSITY OF TEXAS SYSTEM, priority 2016, dated 2022)

Experiments:
[1] = test system: H1355 Parental xenografts; assay: Subcutaneous xenograft drug response, H1355 Parental; format: in vivo, mice; conditions: GSK-J4 100 mg/kg i.p. 5x per week; JIB-04 50 mg/kg oral gavage 3x per week; 4 weeks
Protocol: Animals were housed under standard, sterile conditions at UTSW animal facility. All experiments were carried out under approved IACUC protocols and followed UTSW animal care procedures. For tumor growth rate studies and docetaxel+cisplatin drug response comparisons, 6-8 week old female NOD/SCID mice were used. For all subsequent in vivo drug response studies, 6 week old female athymic nude mice were used (Charles River Labs, Jackson Labs). Experimental details are provided in supplemental information.
Parental and resistant NSCLC cell lines (1×10^6 cells in PBS or RPMI for H1299; 5×10^6 cells in PBS/matrigel for H1355 and HCC4017) were injected subcutaneously into the right flank of mice. Tumor growth was monitored by caliper measurements and tumor volume was calculated by 0.5×length×width^2). Treatment was started when tumors reached ˜150-200 mm3. Drug/Vehicle therapy was given to tumor volume matched pairs. Docetaxel (3 mg/kg) and cisplatin (3 mg/kg) were given i.p. once a week for 3 weeks. […]

[2] = test system: homologous recombination (HR); assay: Green fluorescent protein HR reporter assay, H1299; format: cell-based, Human; conditions: H1299 cells with integrated construct
Protocol: The green fluorescent protein assay was performed as described by Seluanov et al. To generate reporter cell lines 2 million H1299 cells were transfected with 0.5 μg of linearized NHEJ-I, or HR reporter constructs using the Amaxa Nucleofector; program X-005. G418, at 1 mg/ml, was added to the media 1 day post-transfection. Then Transient expression of the I-SceI endonuclease was used to generate a DNA DSB at the integrated GFP gene sequences. Briefly, H1299 cells containing the NHEJ or the HR constructs treated by 4 h with JIB-04 or DMSO were transfected with the pCMV3xnls-I-SceI (5 μg, functional endonuclease) and a pN1-mCherry plasmid (0.05 μg) as transfection control as previously stated. For the analysis of NHEJ and HR cells were harvested, resuspended in ˜1 ml 1×PBS, put on ice, and run on a BD FACScan instrument. GFP and mCherry fluorescence was analyzed using FlowJo software. Red-versus-green was plotted and DNA repair efficiency was calculated from the number of GFP-positive cells divided by the number of cells mCherry-positive cells.

Clc1ccc(N/N=C(\c2ccccc2)c2ccccn2)nc1 [JIB-04]
change in tumor volume relative to treatment start [1]: continued to grow in volume
HR repair efficiency [2]: ≤ 50 % of normal levels
